Entries after “also recorded” stand apart in the source; their conditions may differ. Non-standard residues stand in square brackets, D forms with d. Residues, ends and D or L forms follow the SMILES beside them.
Experiments:
[1] = Inhibition assay: degradation of L-peptide […] with and without RD2; type: in vitro ADME; conditions: 150 µM RD2 + 150 µM L-peptide; SGF, SIF 5 min; plasma, liver microsomes 30 min
Description: To investigate whether RD2 acts as potential inhibitor for the enzymes contained in SGF, SIF, human blood plasma and human liver microsomes, an exemplary L-peptide, […], was incubated in these media with and without RD2 and the potential inhibition of the L-peptide’s degradation was monitored. This control was intended to reveal a potential resistance of RD2 to degradation due to enzyme inhibition instead of pure degradation resistance. […] For this purpose, 150 µM of the L-peptide with or without 150 µM RD2 was incubated in SGF, SIF, human plasma and liver microsomes and both peptides were extracted from the media immediately or after 5 min (SGF, SIF) or 30 min (plasma, liver microsomes) with the method mentioned under point 2.3. Time dependent compound degradation or modification was followed by RP-HPLC (see 2.8).
For analysis of the inhibition assay with enzymes contained in SGF, SIF, plasma and liver microsomes (see 2.4), RD2, […] and remaining media components were separated using the mobile phases acetonitrile (A) and water (B) each supplemented with 0.15% TFA and a gradient from 0 to 50% solvent A in 15 min.

[2] = Stability in simulated gastric fluid (SGF), RP-HPLC; type: in vitro ADME; conditions: 37 °C, read-out: unmetabolized peptide remaining (remained stable)
Description: The preparation of the media was performed as described before in Elfgen et al.[24]. Preparation of simulated gastric and intestinal fluid (SGF & SIF) was done according to the European Pharmacopoeia 7.0. Plasma samples were obtained from human blood of a volunteer donor. Pooled human liver microsomes were purchased from Sekisui XenoTech (Kansas City, USA; H1000, Lot: 0710494 and 1210270; H1500, Lot: 1210079), from Sigma-Aldrich (St. Louis, USA; M0692, Lot: SLBL1433V; M0567, Lot: SLBR2706V and SLBN7300V) and from Gibco, Thermo Fisher Scientific (Waltham, USA; HMMCPL, Lot: PL050; HMMCPM, Lot: PL039). Pooled Sprague Dawley rat liver microsomes were purchased from Sigma-Aldrich (St. Louis, USA; M9066, Lot: SLBN0707V) and from Gibco, Thermo Fisher Scientific (Waltham, USA; RTMCPL, Lot: RT053). Pooled cynomolgus monkey liver microsomes were purchased from Gibco, Thermo Fisher Scientific (Waltham, USA; MKMCPL, Lot: MK062) and from Sekisui XenoTech (Kansas City, USA; P2000, Lot: 1210334). […]
(§1) For sample analysis from stability tests (see 2.3), mobile phases were acetonitrile (A) and water (B) each supplemented with 0.15% trifluoroacetic acid (TFA) (v/v). The samples were measured isocratically at 10% solvent A for 30 min. […] A chromatographic metabolite profile of L-RD2 in SIF was recorded with the same mobile phases but using a gradient from 0 to 30% solvent A in 30 min.

cynomolguses = conditions: cynomolgus monkey, in vivo, po; cited from earlier work
[3] = Stability in human plasma, RP-HPLC; type: in vitro ADME; conditions: female, 37 °C
Description: (§2) The preparation of the media was performed as described before in Elfgen et al.[24]. Preparation of simulated gastric and intestinal fluid (SGF & SIF) was done according to the European Pharmacopoeia 7.0. Plasma samples were obtained from human blood of a volunteer donor. Pooled human liver microsomes were purchased from Sekisui XenoTech (Kansas City, USA; H1000, Lot: 0710494 and 1210270; H1500, Lot: 1210079), from Sigma-Aldrich (St. Louis, USA; M0692, Lot: SLBL1433V; M0567, Lot: SLBR2706V and SLBN7300V) and from Gibco, Thermo Fisher Scientific (Waltham, USA; HMMCPL, Lot: PL050; HMMCPM, Lot: PL039). Pooled Sprague Dawley rat liver microsomes were purchased from Sigma-Aldrich (St. Louis, USA; M9066, Lot: SLBN0707V) and from Gibco, Thermo Fisher Scientific (Waltham, USA; RTMCPL, Lot: RT053). Pooled cynomolgus monkey liver microsomes were purchased from Gibco, Thermo Fisher Scientific (Waltham, USA; MKMCPL, Lot: MK062) and from Sekisui XenoTech (Kansas City, USA; P2000, Lot: 1210334). The liver microsomes were diluted in an NADPH regenerating system (NRS).
(§3) For the stability tests, 150 µM RD2 or L-RD2 was incubated in SGF, SIF, human plasma and human liver microsomes in triplicate at 37 °C with slight shaking for different time periods. To prevent microbial contaminations in long-term plasma incubations, 0.1% sodium azide was added to the solutions. Microsomal long-term activity was examined by incubating microsomes without peptide for up to 24 h and adding L-RD2 after 8 and 24 h. The ability to degrade L-RD2 served as indicator for their activity. For the comparison of RD2 metabolite profiles across species, 150 µM RD2 was incubated in human, rat and cynomolgus liver microsomes at 37 °C for 2 and 24 h. The peptides were extracted by precipitating the proteins with trichloroacetic acid (TCA) and subsequent centrifugation, as described previously in Elfgen et al.[24]. Peptides immediately extracted from the media and precipitated media without peptides served as controls.
For sample analysis from stability tests (see 2.3), mobile phases were acetonitrile (A) and water (B) each supplemented with 0.15% trifluoroacetic acid (TFA) (v/v). The samples were measured isocratically at 10% solvent A for 30 min. This run conditions allowed us to detect smallest chemical changes including the differentiation between the original compound and a deamidated version (Fig. S1). RD2 and L-RD2 can potentially be deamidated at two sites, the C-terminus and the asparagine at position seven. Peak areas of the unmetabolized peptides after different incubation times were normalized to the peptides’ peak areas after direct extraction from the media. […] A chromatographic metabolite profile of L-RD2 in SIF was recorded with the same mobile phases but using a gradient from 0 to 30% solvent A in 30 min.

CYP2D6 = CYP2D6 (Homo sapiens, UniProt P10635); experiment: CYP isoform inhibition in human liver microsomes (Cyprotex); type: in vitro ADME
CYP2D6, sequence (P10635 whole entry, canonical isoform): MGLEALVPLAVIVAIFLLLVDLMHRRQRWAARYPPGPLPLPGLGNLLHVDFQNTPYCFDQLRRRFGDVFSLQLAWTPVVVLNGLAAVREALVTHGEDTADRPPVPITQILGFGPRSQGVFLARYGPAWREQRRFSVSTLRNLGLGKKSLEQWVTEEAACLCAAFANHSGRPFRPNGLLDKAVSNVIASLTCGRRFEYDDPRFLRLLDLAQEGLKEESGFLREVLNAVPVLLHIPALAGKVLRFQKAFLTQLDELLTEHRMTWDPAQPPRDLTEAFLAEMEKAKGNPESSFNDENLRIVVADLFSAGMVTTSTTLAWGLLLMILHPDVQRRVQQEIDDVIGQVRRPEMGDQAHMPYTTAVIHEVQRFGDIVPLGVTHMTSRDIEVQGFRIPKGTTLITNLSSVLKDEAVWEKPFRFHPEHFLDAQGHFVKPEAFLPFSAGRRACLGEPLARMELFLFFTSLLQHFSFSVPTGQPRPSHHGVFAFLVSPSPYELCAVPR
Description: The experiments were performed by Cyprotex. […] All assays were performed sevenfold.

[4] = Stability in human liver microsomes, RP-HPLC / UHPLC-ESI-QTOF-MS; type: in vitro ADME
Description: as §2, §3
For sample analysis from stability tests (see 2.3), mobile phases were acetonitrile (A) and water (B) each supplemented with 0.15% trifluoroacetic acid (TFA) (v/v). The samples were measured isocratically at 10% solvent A for 30 min. This run conditions allowed us to detect smallest chemical changes including the differentiation between the original compound and a deamidated version (Fig. S1). RD2 and L-RD2 can potentially be deamidated at two sites, the C-terminus and the asparagine at position seven. Peak areas of the unmetabolized peptides after different incubation times were normalized to the peptides’ peak areas after direct extraction from the media. […] A chromatographic metabolite profile of L-RD2 in SIF was recorded with the same mobile phases but using a gradient from 0 to 30% solvent A in 30 min. […]

[5] = Comparison of RD2 metabolite profiles across species: cynomolgus liver microsomes; type: in vitro ADME, cynomolgus monkey
Description: as §2
as §3, with “The peptides were extracted by precipitating the proteins with trichloroacetic acid (TCA) and subsequent centrifugation, as described previously in Elfgen et al.[24]. Peptides immediately extracted from the media and precipitated media without peptides served as controls.” left out
(§4) For the comparison of RD2 metabolite profiles across species (see 2.3), mobile phases were acetonitrile (A) and water (B) each supplemented with 0.1% TFA. […] The amount of the purified HSM-3 was calculated based on a calibration curve of 10 to 100 µM RD2 extracted from human liver microsomes.

[6] = Comparison of RD2 metabolite profiles across species: human liver microsomes; type: in vitro ADME
Description: as §2, §3
For the comparison of RD2 metabolite profiles across species (see 2.3), mobile phases were acetonitrile (A) and water (B) each supplemented with 0.1% TFA. The gradient ran from 0 to 100% solvent A and is described in detail in Table S1. The chromatographic RD2 metabolite profiles were screened for potential human-specific metabolites. RD2 and the major RD2 metabolite present after 24 h of incubation in human liver microsome batches 7 and 8, HSM-3, were purified by RP-HPLC. Mobile phases were acetonitrile (A) and water (B) each supplemented with 0.15% TFA. The samples were separated isocratically at 10% solvent A for 30 min. RD2 as well as HSM-3 were collected and the samples were freeze-dried subsequently. The amount of the purified HSM-3 was calculated based on a calibration curve of 10 to 100 µM RD2 extracted from human liver microsomes.

[7] = Stability in simulated intestinal fluid (SIF), RP-HPLC; type: in vitro ADME; conditions: simulated intestinal fluid (SIF), 150 µM, 37 °C, 24 h, read-out: unmetabolized peptide remaining (remained stable)
Description: as §2
as §3, with “The peptides were extracted by precipitating the proteins with trichloroacetic acid (TCA) and subsequent centrifugation, as described previously in Elfgen et al.[24]. Peptides immediately extracted from the media and precipitated media without peptides served as controls.” left out
as §1

[8] = Comparison of RD2 metabolite profiles across species: rat liver microsomes; type: in vitro ADME
Description: as §2
as §3, with “The peptides were extracted by precipitating the proteins with trichloroacetic acid (TCA) and subsequent centrifugation, as described previously in Elfgen et al.[24]. Peptides immediately extracted from the media and precipitated media without peptides served as controls.” left out
as §4

SMILES: CC(C)C[C@@H](NC(=O)[C@H](NC(=O)[C@H]1CCCN1)[C@H](C)O)C(=O)N[C@H](Cc1c[nH]cn1)C(=O)N[C@@H](C(=O)N[C@H](Cc1c[nH]cn1)C(=O)N[C@H](CC(N)=O)C(=O)N[C@H](CCCNC(=N)N)C(=O)N[C@H](CCCNC(=N)N)C(=O)N[C@H](CCCNC(=N)N)C(=O)N[C@H](CCCNC(=N)N)C(=O)N[C@H](CCCNC(=N)N)C(N)=O)[C@H](C)O [RD2, ptlhthnrrrrr] (H-[dP][dT][dL][dH][dT][dH][dN][dR][dR][dR][dR][dR]-NH2)
- influence of RD2 on degradation of the L-peptide KLVFFRRRRRR [1]: not influenced; also recorded: did not influence the degradation of the L-peptide in any of the media
- remaining at 24 h, 150 µM [2]: ≥ 97%
- toxic effects of orally administered RD2 (cynomolguses): does not cause toxic effects up to high doses
- metabolised at 480 h, 150 µM ([3]; 150 µM, within 20 days, read-out: peptide degraded): 87 ± 3%
- half-life at 150 µM ([3]; read-out: half-life (first order kinetics fit) (converted)): 216 h
- inhibition of CYP2D6 (CYP2D6; concentration range 0 to 25 µM): did not inhibit
- inhibition at 0.25 µM (CYP2D6; human, human liver microsomes, 0.25 µM RD2): 1.33%
- inhibition at 1 µM (CYP2D6; human, human liver microsomes, 1 µM RD2): 0.671%
- inhibition at 2.5 µM (CYP2D6; human, human liver microsomes, 2.5 µM RD2): 3.53%
- inhibition at 10 µM (CYP2D6; human, human liver microsomes, 10 µM RD2): -5.9%
- inhibition at 25 µM (CYP2D6; human, human liver microsomes, 25 µM RD2): -9.57%
- peptide metabolized ([4]; 150 µM, 37 °C, within 24 h): 33 ± 3%
- deamidation in human liver microsomes ([4]; UHPLC-ESI-QTOF-MS): not deamidated
- metabolization of RD2 after 2 h ([5]; cynomolgus liver microsomes, 150 µM, 2 h): unmetabolized
- metabolised at 24 h, 150 µM ([5]; monkey, pooled cynomolgus monkey liver microsomes, cynomolgus samples, 24 h, read-out: decrease of the intensity of the RD2 peak): 9 ± 2%
- metabolization of RD2 after 2 h ([6]; human samples 1–6, 150 µM, 2 h): unmetabolized
- decrease of the intensity of the RD2 peak ([6]; human samples 1–6, 24 h): 21 ± 7%
- remaining at 24 h, 150 µM [7]: ≥ 97%
- metabolised at 24 h, 150 µM ([8]; Sprague Dawley, pooled rat liver microsomes, rat samples, 24 h, read-out: decrease of the intensity of the RD2 peak): 17 ± 4%
- metabolization of RD2 after 2 h ([8]; rat liver microsomes, 150 µM, 2 h): unmetabolized

Reference: publication PMC6450887, “Metabolic resistance of the D-peptide RD2 developed for direct elimination of amyloid-β oligomers” (Scientific Reports, 2019)
